{"source": "patent US12383495B2", "about": "“Resident articles for gram-level dosing” (Massachusetts Institute of Technology, priority 2018, dated 2025)", "key": {"[1]": {"assay": "In vitro drug release from drug-VPS pills/devices in water", "assay_type": "physicochemical", "details": "37° C.", "description": "Three intact rifampicin devices were fabricated by loading 2 grams of drug into VPS pills. The devices were incubated in 500 mL of nanopure water for up to 26 days in a shaking incubator at 37° C. and 200 rpm, with media exchange at specified time intervals. […] The drug concentrations samples were then measured on an Infinite M200Pro (Tecan) reader (absorbance, 475 nm)."}, "[2]": {"details": "pig, in vivo"}, "[3]": {"assay": "In vitro drug release from drug-vinylpolysiloxane pills/articles in simulated gastric fluid", "assay_type": "physicochemical", "details": "for in vitro release from drug-VPS pill: SGF, 37° C., up to 28 days", "description": "Articles with a series of 30 pills were made so that there was 1 gram of doxycycline hyclate in 2 grams of vinylpolysiloxane. Pills were coated with either cellulose acetate butyrate (CAB) or with Eudragit RS PO. A control with no coatings was also made. The articles were immersed in simulated gastric fluid, and the cumulative release of doxycycline hyclate was measured for more than 26 days. […] Thickness of coatings was tuned by increasing the spray volume. […] Individual pills made of drug-VPS for doxycycline hyclate, isoniazid, ethambutol, pyrazinamide, moxifloxacin were used to evaluate long-term release kinetics in SGF. […] Drug concentrations were then analyzed using a High-Performance Liquid Chromatography (HPLC). […] An Agilent 1260 Infinity II HPLC system (Agilent Technologies, Inc.) equipped with a Model 1260 quaternary pump, Model 1260 High Performance autosampler, Model 1260 thermostat, Model 1260 Infinity Thermostatted Column Compartment control module, and Model 1260 diode array detector was utilized. Data processing and analysis was performed using OpenLab CDS ChemStation (Agilent Technologies, Inc.). All solvents used were purchased from Sigma-Aldrich Corporation. For doxycycline hyclate, chromatographic isocratic separation was carried out on an Agilent 4.6×50 mm AdvanceBio RP-mAb SB-C8 analytical column with 3.5 μm particles, maintained at 55° C. The optimized mobile phase consisted of 20 mM dipotassium phosphate buffer and acetonitrile (pH 6 adjusted with triethylamine) [60:40 (v/v)] at a flow rate of 0.85 mL/min over a 4 min run time. The injection volume was 5 μl, and the selected ultraviolet (UV) detection wavelength was 293 nm."}}}
{"compound": "NNC(=O)c1ccncc1", "note": "[isoniazid]", "values": [{"measurement": "in vitro release from drug-VPS pill/device", "setting": "[1]", "value": "able to release"}]}
{"compound": "CO[C@H]1/C=C/O[C@@]2(C)Oc3c(C)c(O)c4c(O)c(c(/C=N/N5CCN(C)CC5)c(O)c4c3C2=O)NC(=O)/C(C)=C\\C=C\\[C@H](C)[C@H](O)[C@@H](C)[C@@H](O)[C@@H](C)[C@H](OC(C)=O)[C@@H]1C", "note": "[rifampicin]", "values": [{"measurement": "duration of detectable serum concentrations", "setting": "[2]", "value": "detectable serum concentrations for a week"}]}
{"compound": "doxycycline hyclate", "values": [{"measurement": "absorption", "setting": "[2]", "value": "absorbed rapidly"}, {"measurement": "duration of detectable drug in serum", "setting": "[2]", "value": "at least 28 days"}, {"measurement": "duration of sustained drug release (non-zero concentrations in the blood)", "setting": "[2]", "value": "at least 7 days"}, {"measurement": "burst release", "setting": "[3]; PEG 3350 in matrix, pills coated with Eudragit RS PO or Eudragit NM 30D", "value": "prevented the burst release in the first day"}, {"measurement": "rate of release", "setting": "[3]; PEG 3350 in matrix, thicker coating of Eudragit NM 30D", "value": "slower rate of release"}, {"measurement": "release kinetic profile", "setting": "[3]; VPS pills coated with Eudragit RS 100, SGF", "value": "linear kinetic profile with limited burst release"}, {"measurement": "burst release", "setting": "[3]; article of 30 pills coated with Eudragit RS PO, simulated gastric fluid, vs uncoated control", "value": "prevented the burst release in the first couple days"}, {"measurement": "burst release", "setting": "[3]; article of 30 pills coated with cellulose acetate butyrate (CAB), simulated gastric fluid, vs uncoated control", "value": "prevented the burst release in the first couple days"}, {"measurement": "duration of drug release (cumulative release)", "setting": "[3]; articles of 30 pills, 1 gram drug in 2 grams vinylpolysiloxane, CAB-coated, Eudragit RS PO-coated or uncoated, simulated gastric fluid", "value": "more than 26 days"}, {"measurement": "burst release and release rate", "setting": "[3]; multi-matrix pill (concentric layers of different drug/matrix concentration)", "value": "reducing the burst release and release rate"}, {"measurement": "burst release and release rate", "setting": "[3]; pills coated with PDMS of different viscosities (750 cst and 25 cst)", "value": "blunted the burst release and slowed down the release rate"}, {"measurement": "effect of excipient on rate of release", "setting": "[3]; polyethylene glycol (PEG) 3350 added to drug/siloxane matrix", "value": "increase the rate of release"}]}
{"compound": "NC(=O)c1cnccn1", "note": "[pyrazinamide]", "values": [{"measurement": "in vitro release from drug-VPS pill", "setting": "[3]", "value": "able to release"}]}
{"compound": "CC[C@@H](CO)NCCN[C@@H](CC)CO", "note": "[ethambutol]", "values": [{"measurement": "in vitro release from drug-VPS pill", "setting": "[3]", "value": "able to release"}]}
